Data published in ChEMBL document CHEMBL1201862, “PubChem BioAssay data set” (2004).
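A five-concentration, 48-hour dose response in 96-well plates underlies each endpoint, interpolated linearly between surrounding concentrations. GI50 = concentration required for 50% inhibition of growth.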 Calls of active or inactive are those of the source. No stated cut-off is given here; in the data, active = GI50 up to about 1.1 µM and inactive = higher.

What was measured:
Assay in all cases: growth of human tumour cells (NCI), 48 h
HCT-15 = system: HCT-15
HT-29 = system: HT-29
SF-295 = system: SF-295
SNB-19 = system: SNB-19
SR = system: SR
OVCAR-4 = system: OVCAR-4
NCI-H23 = system: NCI-H23
SK-OV-3 = system: SK-OV-3
BT-549 = system: BT-549
OVCAR-3 = system: OVCAR-3
NCI-H522 = system: NCI-H522
SNB-75 = system: SNB-75
MDA-MB-231 = system: MDA-MB-231
U-251 = system: U-251
TK-10 = system: TK-10
SF-268 = system: SF-268
SW-620 = system: SW-620
PC-3 = system: PC-3
MOLT-4 = system: MOLT-4
HOP-92 = system: HOP-92

SMILES | GI50 (HCT-15) | GI50 (HT-29) | GI50 (SF-295) | GI50 (SNB-19) | GI50 (SR) | GI50 (OVCAR-4) | GI50 (NCI-H23) | GI50 (SK-OV-3) | GI50 (BT-549) | GI50 (OVCAR-3) | GI50 (NCI-H522) | GI50 (SNB-75) | GI50 (MDA-MB-231) | GI50 (U-251) | GI50 (TK-10) | GI50 (SF-268) | GI50 (SW-620) | GI50 (PC-3) | GI50 (MOLT-4) | GI50 (HOP-92)
COc1cc(/C=N/c2ccc(Oc3ccc(Cl)cc3)c(Cl)c2)cc(OC)c1OC | 19.5 µM | 22.2 µM (inactive) | 18.2 µM (inactive) | 21.8 µM (inactive) | 26.9 µM (inactive) | 19.4 µM (inactive) | 20.2 µM (inactive) | > 10 µM (inactive) | 15.9 µM (inactive) | 20 µM (inactive) | 12.3 µM (inactive) | 23.7 µM (inactive) | 16.8 µM (inactive) | 18.2 µM (inactive) | 32.9 µM (inactive) | 12.4 µM (inactive) | 34.2 µM (inactive) | 14.3 µM (inactive) | 24.9 µM (inactive) | 19.1 µM (inactive)
N=C(N)NC(CC(=O)O)c1ccccc1 (stereo unspecified) | > 100 µM | > 100 µM (inactive) | > 100 µM (inactive) | > 100 µM (inactive) | > 100 µM (inactive) | > 100 µM (inactive) | > 100 µM (inactive) | > 100 µM (inactive) | > 100 µM (inactive) | > 100 µM (inactive) | > 100 µM (inactive) | > 100 µM (inactive) | > 100 µM (inactive) | > 100 µM (inactive) | > 100 µM (inactive) | > 100 µM (inactive) | > 100 µM (inactive) | > 100 µM (inactive) |  | > 100 µM (inactive)
O=C1c2cccc([N+](=O)[O-])c2C(=O)N1Cc1ccccc1 | > 100 µM | > 100 µM (inactive) | > 100 µM (inactive) | > 100 µM (inactive) | > 100 µM (inactive) | > 100 µM (inactive) | > 100 µM (inactive) | > 100 µM (inactive) | > 100 µM (inactive) | > 100 µM (inactive) | > 100 µM (inactive) | > 100 µM (inactive) | > 100 µM (inactive) | > 100 µM (inactive) | > 100 µM (inactive) | > 100 µM (inactive) | > 100 µM (inactive) | > 100 µM (inactive) | > 100 µM (inactive) | > 100 µM (inactive)
COC(=O)c1ccc2cc(O)c(O)cc2c1 | 33 µM | 37.4 µM (inactive) | 38.3 µM (inactive) | 22.8 µM (inactive) | 13.2 µM (inactive) | 43.6 µM (inactive) | 26.5 µM (inactive) | 70.8 µM (inactive) | 21.2 µM (inactive) | 31.1 µM (inactive) | 16.1 µM (inactive) | 90.8 µM (inactive) | 60.7 µM (inactive) | 29.6 µM (inactive) | 27.9 µM (inactive) | 16.6 µM (inactive) | 51.4 µM (inactive) | 32.4 µM (inactive) | 15.5 µM (inactive) | 32.5 µM (inactive)
Cc1ccc(C(=N)Nc2ccccc2)cc1 | > 100 µM | 69.7 µM (inactive) | > 100 µM (inactive) | > 100 µM (inactive) | > 100 µM (inactive) | > 100 µM (inactive) | > 100 µM (inactive) | > 100 µM (inactive) | > 100 µM (inactive) | > 100 µM (inactive) | > 100 µM (inactive) | > 100 µM (inactive) | > 100 µM (inactive) | > 100 µM (inactive) | > 100 µM (inactive) | > 100 µM (inactive) | > 100 µM (inactive) | > 100 µM (inactive) | > 100 µM (inactive) | > 100 µM (inactive)
N=C(N)NS(=O)(=O)c1ccc(NC(=O)c2ccc3nc4ccccc4c(Nc4ccc(S(N)(=O)=O)cc4)c3c2)cc1 | > 100 µM | > 100 µM (inactive) | > 100 µM (inactive) | > 100 µM (inactive) | > 100 µM (inactive) | > 100 µM (inactive) | > 100 µM (inactive) | > 100 µM (inactive) | > 100 µM (inactive) | > 100 µM (inactive) | > 100 µM (inactive) | > 100 µM (inactive) | > 100 µM (inactive) | > 100 µM (inactive) | > 100 µM (inactive) | > 100 µM (inactive) | > 100 µM (inactive) | > 100 µM (inactive) | > 100 µM (inactive) | > 100 µM (inactive)
O=S(=O)(O)c1cc(S(=O)(=O)O)c2c(/N=N/c3ccc(/N=N/c4ccccc4)cc3)c(O)ccc2c1 | > 100 µM | > 100 µM (inactive) | > 100 µM (inactive) | > 100 µM (inactive) | > 100 µM (inactive) | > 100 µM (inactive) | > 100 µM (inactive) | > 100 µM (inactive) | > 100 µM (inactive) | > 100 µM (inactive) | > 100 µM (inactive) | > 100 µM (inactive) | > 100 µM (inactive) | > 100 µM (inactive) | > 100 µM (inactive) | > 100 µM (inactive) | > 100 µM (inactive) | > 100 µM (inactive) | > 100 µM (inactive) | > 100 µM (inactive)
CN(C)CCCNC(=O)c1c(O)c2ccccc2n(C)c1=O | 51.1 µM | 55.6 µM (inactive) | 48.5 µM (inactive) |  | 41.5 µM (inactive) | 78.3 µM (inactive) | > 100 µM (inactive) | > 100 µM (inactive) | 70 µM (inactive) | > 100 µM (inactive) | 61.8 µM (inactive) | 63.7 µM (inactive) | 86.5 µM (inactive) | 39.5 µM (inactive) | 67.3 µM (inactive) | 49.8 µM (inactive) | 54 µM (inactive) | 67.6 µM (inactive) | 44.5 µM (inactive) | 14.3 µM (inactive)
COc1cccc(C2SC(=N)Nc3c2c(C)nn3C(=O)c2ccccc2O)c1 (stereo unspecified) | > 5.7 µM | > 6.17 µM (inactive) | 3.2 µM (inactive) | > 10 µM (inactive) | > 3.21 µM (inactive) | > 2.88 µM (inactive) |  | > 7.5 µM (inactive) | > 10 µM (inactive) | > 3.65 µM (inactive) | > 5.41 µM (inactive) | 0.925 µM (active) | > 4.62 µM (inactive) | > 2.65 µM (inactive) | > 2.78 µM (inactive) | > 4.32 µM (inactive) | > 7.14 µM (inactive) | > 10 µM (inactive) | > 2.44 µM (inactive) | > 2.08 µM (inactive)
C/C(=C/CC[C@]1(CO)CC[C@]2(CO)[C@H](CC[C@@H]3[C@@]4(C)CC[C@H](OC5OCC(O)C(O)C5OC5OC(CO)C(O)C(O)C5O)C(C)(C)[C@@H]4CC[C@]32C)[C@H]1O)CO (stereo partly specified) |  | > 100 µM (inactive) | > 100 µM (inactive) | > 100 µM (inactive) | > 100 µM (inactive) | > 100 µM (inactive) | > 100 µM (inactive) | > 100 µM (inactive) | > 100 µM (inactive) | > 100 µM (inactive) | > 100 µM (inactive) | > 100 µM (inactive) | > 100 µM (inactive) | > 100 µM (inactive) | > 100 µM (inactive) | > 100 µM (inactive) | > 100 µM (inactive) | > 100 µM (inactive) | > 100 µM (inactive) | > 100 µM (inactive)
